Test results as given in US20240139185A1, “COMPOUNDS THAT PARTICIPATE IN COOPERATIVE BINDING AND USES THEREOF” (Revolution Medicines, Inc., priority 2018, published 2024).

Test system: pERK in H358 cells
Assay: pERK inhibition in H358 cells
Type: cell-based, human
Conditions: 4 hours treatment, read-out: Cellular pERK inhibition
Summary of the method: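 Human lung cancer H358 cells in RPMI/10% FBS were exposed to compound or DMSO for 4 h. Fixed and permeabilized cells were stained overnight at 4 C with anti-phospho-ERK1/2 (Thr202/Tyr204). Near-infrared imaging read the pERK signal at 800 nm, with DRAQ5 at 700 nm.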

Row | Structure (SMILES) | IC50 [µM]
1 | CC1COC(=O)C2CCCN(N2)C(=O)C(NC(=O)C(C(C)C)N(C)C(=O)C2CN(C(=O)CCl)C2)Cc2cc(O)cc(c2)-c2ccc3c(c2)c(cn3CC2COC2)C1 (mixture of isomers) [Compound 226] | 1 to 10
2 | CC1COC(=O)C2CCCN(N2)C(=O)C(NC(=O)C(C(C)C)N(C)C(=O)C2CN(C(=O)CCl)C2)Cc2cc(O)cc(c2)-c2ccc3c(S(C)(=O)=O)cn(c3c2)C1 (single isomer, unassigned) [Compound 110] | 1 to 10
